Reference: patent publication US9790551B2, “Use of TRPC6 mRNA levels in peripheral blood cells for early detection/diagnosis of senile dementia” (Aging Wise Biotechnology, Inc., priority 2013, dated 2017)

Legend:
TRPC6 mRNA [1] = type: cell-based
TRPC6 mRNA [2] = experiment: TRPC6 mRNA in rat neurons after APOE-containing culture medium supernatant; type: cell-based; details: rat neurons cultured in vitro for 8 days, after 2 hr
Description: (§1) The culture medium supernatant containing different APOE isoforms were added into rat neurons cultured in vitro for 8 days. The mRNA levels of TRPC6 and TRPC5 were detected after 2 hr (mean±SE, n=8).

TRPC6 mRNA [3] = experiment: TRPC6 mRNA in Jurkat cells after APOE-containing culture medium; type: cell-based, human; details: after 5 hr
Description: (§2) The culture medium containing different APOE isoforms were added into the Jurkat cells (human T cell line from peripheral blood). The mRNA levels of TRPC6 and TRPC5 were detected after 5 hr (mean±SE, n=5).

TRPC5 mRNA [4] = experiment: TRPC5 mRNA in Jurkat cells after APOE-containing culture medium; type: cell-based, human; details: after 5 hr
Description: as §2

TRPC5 mRNA [5] = experiment: TRPC5 mRNA in rat neurons after APOE-containing culture medium supernatant; type: cell-based; details: rat neurons cultured in vitro for 8 days, after 2 hr
Description: as §1

[6] = system: Aβ levels in APP/PS1 mice; experiment: Brain Aβ levels in APP/PS1 mice after intraperitoneal injection of peptide; type: in vivo; details: intraperitoneally injected, brain tissue 3 hours later
Description: 6. Construction of APP/PS1 AD Mouse Models • a) APP/PS1 mice (with B6C3 background) were purchased from Jackson laboratory (#004462). • b) Construction of TRPC6 transgenic mouse
(§3) Upon collecting the culture medium of the cells, Aβ40 and Aβ42 levels were quantified with sandwich ELISA kit, respectively (purchased from Invitrogen). The forebrain of the mouse was dissected and separated, and then homogenized with GuHCL. After that, total Aβ was determined by ELISA. For determining TBST(Tris-Buffered Saline and 1% TritonX100, 1% SDS, 1% DOC) soluble and insoluble Aβ, upon TBST homogenation and centrifugation of the forebrain of the mouse, the supernatant was determined for TBST soluble Aβ by ELISA, and the precipitate was determined for TBST insoluble Aβ by ELISA upon another GuHCL homogenate.
TAT or TAT-TM2 was intraperitoneally injected into APP/PS1 mice, and brain tissue samples were prepared 3 hours later and the Aβ levels were determined: general method 8 (n=8)

[7] = system: Aβ levels in HEK293APP stable cells; experiment: Aβ ELISA, HEK293APP stable cells treated with TAT fusion peptides; type: cell-based
Description: as §3
In this Example, the second transmembrane domain (487-507aa, TM2) was selected to fuse with cell penetrating peptide TAT and the fusion peptide TAT-TM2 and the mutant thereof TAT-TM2mut were obtained. Their effects on Aβ levels were examined in HEK293APP stable cells.
6.1.2 The Effect of Different Doses of Fusion Protein TAT-TM2 on Aβ Levels in HEK293APP Stable Cells were Determined.
To search for shorter fragments which could inhibit Aβ levels, TM2 was divided into N- and C-terminals and fused with TAT respectively. The effects of TAT-TM2-N, TAT-TM2-C and TAT-TM2-C mutant on Aβ levels in HEK293APP cells was examined.

[8] = system: γ-secretase cleavage of C99; experiment: C99-GVP/UAS luciferase reporter system with peptide; type: cell-based; details: Table 11; luciferase activity; TAT = 1
Description: (§4) HEK293APP were transfected with C99-GVP/UASLuciferase, CTRL or TRPC6 plasmids, and were lysed 24 hours later. The luciferase activities were determined using the Luciferase assay system (purchased from Promega). β-gal was co-transfected to normalize the transfection efficiency.
(§5) C99 is the C-terminal 99 amino acids of APP and the direct substrate of γ-secretase. C0S7C99 cells were passaged in 12-well plate till the density approached 100%. Each well was treated with 5 um peptide for 12 h and the Aβ levels in the culture medium was determined with ELISA.

[9] = system: γ-secretase cleavage of C99; experiment: Aβ ELISA, C0S7C99 cells treated with peptide; type: cell-based; details: Table 11; C0S7-C99 stable cells, 5 um peptide for 12 h; TAT = 1
Description: as §5

[10] = system: Aβ levels in primary cultured cortical neurons; experiment: Aβ levels in primary cultured cortical neurons treated with TAT-TM2; type: cell-based
Description: as §3
6.1.3 The Effect of the Fusion Peptide TAT-TM2 on Aβ Levels in Primary Cultured Cortical Neurons was Determined and the Results were Shown in FIG. 9c: […]

[11] = system: γ-secretase cleavage of Notch; experiment: NICD immunoblotting, Notch-transfected cells treated with peptide; type: cell-based; details: 5 um peptide for 12 hr
Description: Cells were passaged in 12-well plate till the density approached 80%, Each well was transfected with 1 ug Notch plasmid using Lipofectamine 2000. 24 hr later, cells were treated with 5 um peptide for 12 hr. The Notch protein expression was determined by immunoblotting. Wherein, NICD (notch intracellular domain) was the intracellular fragment produced by γ-secretase cleavage of NotchΔE-myc, reflecting the level of γ-secretase cleavage of Notch.

[12] = system: γ-secretase cleavage of Notch; experiment: NICD immunoblotting after co-transfection of TRPC6 and Notch plasmids; type: cell-based; details: immunoblotting 48 h after transfection, 1 ug TRPC6 and 1 ug Notch plasmids
Description: Cells were passaged in 12-well plate till the density approached 80%. Each well was transfected with 1 ug of TRPC6 and 1 ug of Notch plasmids using Lipofectamine 2000. Immunoblotting was used to examine the expression of Notch protein 48 h later. Wherein, NICD (notch intracellular domain) is the intracellular fragment produced by γ-secretase cleavage of Notch ΔE-myc, reflecting the level of γ-secretase cleavage of Notch.

[13] = system: γ-secretase cleavage of C99; experiment: Aβ ELISA, COS7-C99 stable cells overexpressing TRPC6; type: cell-based; details: Table 3, 1 ug plasmid, 48 h, empty vector = 1
Description: as §3
(§6) HEK293APP stable cell line was cultured in DMEM culture solution (containing 200 ng/ml G418) with 10% FBS. C0S7C99 cells were cultured in MEM/F12 culture solution (containing 0.4 ug/ml hygromycin B) with 5% FBS, 1% NEAA, and 200 mM Glutamax. All the transfection was conducted by using Lipofectamin 2000 (Invitrogen).
C0S7C99 cells overexpressing TRPC6 were obtained by cell-transfection through general method 9 (n=5). The cells were passaged in 12-well plate till the density approached 80%. Each well was transfected with 1 ug plasmid using Lipofectamine 2000, and the Aβ levels in the culture medium were determined with ELISA after 48 h.

[14] = system: γ-secretase cleavage of C99; experiment: C99-GVP/UAS-luciferase reporter assay with TRPC6 plasmid; type: cell-based; details: Table 3; luciferase activity, lysed 24 hours after transfection; empty vector = 1
Description: as §4

[15] = system: Aβ levels in HEK293APP stable cells; experiment: Aβ ELISA of culture medium, HEK293APP stable cells transfected with TRPC plasmids; type: cell-based; details: Table 1; HEK293APP stable cell, 1 ug plasmid, medium ELISA after 48 hr; empty vector = 1
Description: as §3, §6
HEK293 cells were inoculated to 60 mm dishes. When the density was close to 80%, 4 ug APP plasmid was transfected with Lipofectamine 2000. After 4 h, the culture medium was replaced and 400 ng/ml of G418 was added. Cells were passage 2 days later and G418 in the culture was maintained at 400 ng/ml. After 2-3 weeks, the cells not transected died gradually, and the survived cells were HEK293 cells expressing APP. Then, G418 was reduced to and maintained at 200 ng/ml.
TRPC6 or TRPC5 was overexpressed in HEK293APP stable cell lines respectively (Cells were passaged into 12-well plates till the densities were close to 80%. Each well was transfected with 1 ug plasmid using Lipofectamine 2000, and the Aβ levels in the medium were determined with ELISA after 48 hr).
Afterwards, HEK293APP stable cells were passaged in 12-well plate till the density approached 80%. Each well was transfected with lug plasmid using Lipofectamine 2000, and the Aβ levels in the culture medium were determined with ELISA after 48 h. The targeting fragment was primarily narrowed down to 437-507aa.
The […] of TRPC6 contains the first transmembrane regions(TM1), the first extracellular loop (Loop1), and the second transmembrane regions (TM2). To further narrow down the active domain, we constructed 3 variant plasmids, with TM2 region replacement by TM1 region (C6-mut1), reversal of TM2 sequence (C6-mut2) or point mutations within TM2 region(C6-mut3). Then HEK293APP stable cells were passaged in 12-well plate. When the density was close to 80%, every well was transfected with lug plasmid using Lipofectamine 2000, and the Aβ levels in the medium were determined with ELISA after 48 h. The active fragment was further narrowed down to 487-507aa.

[16] = Table 5, HEK293APP stable cells, TAT control line, concentration not given
[17] = Table 8, HEK293APP stable cells, TAT = 1
[18] = Table 9, TAT-TM2 variants, HEK293APP cells, TAT = 1
[19] = Table 5, HEK293APP stable cells, 2 uM, TAT = 1
[20] = Table 5, HEK293APP stable cells, 5 uM, TAT = 1
[21] = Table 5, HEK293APP stable cells, 10 uM, TAT = 1

## [Cl-].[Cl-].[Co+2] [CoCl2]
TRPC6 mRNA [1]
  TRPC6 expression (mRNA): could upregulate TRPC6 expression

## APOE4: culture medium supernatant containing APOE4 isoform
TRPC6 mRNA [2]
  TRPC6 mRNA levels: could not affect the TRPC6 mRNA levels
TRPC6 mRNA [3]
  TRPC6 mRNA levels: could not affect TRPC6 mRNA levels
TRPC5 mRNA [4]
  TRPC5 mRNA levels: could not affect TRPC5 mRNA levels
TRPC5 mRNA [5]
  TRPC5 mRNA levels: could not affect the TRPC5 mRNA levels

## TAT (GRKKRRQRRRC; fusion peptide) [reference compound]
[6]
  Aβ40: 169.70 ± 61.78 pg/mg
  Aβ42: 492.60 ± 157.70 pg/mg
[7]; [16]
  Aβ40: 1
  Aβ42: 1
[7]; [17]
  Aβ40: 1
  Aβ42: 1
[7]; [18]
  Aβ40: 1
  Aβ42: 1
[8]
  C99-GVP/UAS luciferase reporter system: 1
[9]
  Aβ40: 1
  Aβ42: 1

## TAT-TM2: fusion peptide of TRPC6 second transmembrane domain (487-507aa) and TAT, SEQ ID NO.:17, TSCFSWMEMLIISWVIGMIWAGRKKRRQRRRC (fusion peptide)
[6]
  Aβ40: 91.12 ± 43.56 pg/mg
  Aβ42: 277.40 ± 124.10 pg/mg
[7]; [19]
  Aβ40: 0.6825 ± 0.0498
  Aβ42: 0.6244 ± 0.03189
[7]; [20]
  Aβ40: 0.4863 ± 0.05919
  Aβ42: 0.3255 ± 0.02046
[7]; [21]
  Aβ40: 0.2481 ± 0.0763
  Aβ42: 0.2214 ± 0.01597
[7]; [17]
  Aβ40: 0.39 ± 0.03
  Aβ42: 0.40 ± 0.06
[10]
  Aβ40, of the control group: 83%
  Aβ42, of the control group: 68%
[11]
  NICD level (γ-secretase cleavage of NotchΔE-myc): did not affect NICD level
[8]
  C99-GVP/UAS luciferase reporter system: 0.82 ± 0.02
[9]
  Aβ40: 0.39 ± 0.11
  Aβ42: 0.58 ± 0.04

B1: TRPC6: transient receptor potential canonical 6 protein, overexpressed from plasmid; SEQ ID NO.:5 (protein, listed as Mus musculus)
chain: MSQSPRFVTRRGGSLKAAPGAGTRRNESQDYLLMDELGDDGYPQLPLPPYGYYPSFRGNENRLTHRRQTILREKGRRLANRGPAYMFNDHSTSLSIEEERFLDAAEYGNIPVVRKMLEECHSLNVNCVDYMGQNALQLAVANEHLEITELLLKKENLSRVGDALLLAISKGYVRIVEAILNHPAFAEGKRLATSPSQSELQQDDFYAYDEDGTRFSHDVTPIILAAHCQEYEIVHTLLRKGARIERPHDYFCKCTECSQKQKHDSFSHSRSRINAYKGLASPAYLSLSSEDPVMTALELSNELAVLANIEKEFKNDYRKLSMQCKDFVVGLLDLCRNTEEVEAILNGDAETRQPGDFGRPNLSRLKLAIKYEVKKFVAHPNCQQQLLSIWYENLSGLRQQTMAVKFLVVLAVAIGLPFLALIYWCAPCSKMGKILRGPFMKFVAHAASFTIFLGLLVMNAADRFEGTKLLPNETSTDNARQLFRMKTSCFSWMEMLIISWVIGMIWAECKEIWTQGPKEYLFELWNMLDFGMLAIFAASFIARFMAFWHASKAQSIIDANDTLKDLTKVTLGDNVKYYNLARIKWDPTDPQIISEGLYAIAVVLSFSRIAYILPANESFGPLQISLGRTVKDIFKFMVIFIMVFVAFMIGMFNLYSYYIGAKQNEAFTTVEESFKTLFWAIFGLSEVKSVVINYNHKFIENIGYVLYGVYNVTMVIVLLNMLIAMINSSFQEIEDDADVEWKFARAKLWFSYFEEGRTLPVPFNLVPSPKSLLYLLLKFKKWMCELIQGQKQGFQEDAEMNKRNEEKKFGISGSHEDLSKFSLDKNQLAHNKQSSTRSSEDYHLNSFSNPPRQYQKIMKRLIKRYVLQAQIDKESDEVNEGELKEIKQDISSLRYELLEEKSQNTEDLAELIRKLGERLSLEPKLEESRR
[12]
  NICD level (γ-secretase cleavage of NotchΔE-myc): did not affect NICD level
[13]
  Aβ40: 0.5949 ± 0.06435
  Aβ42: 0.5805 ± 0.04428
[14]
  C99-GVP/UAS-Luciferase reporter system: 0.4650 ± 0.02628
[15]
  Aβ40: 0.6839 ± 0.07359
  Aβ42: 0.6734 ± 0.06994
